According to patent US7534766B2, “Glucuronide metabolites and epimers thereof of tigecycline” (Wyeth, priority 2004, dated 2009):
Like-named read-outs stand apart in the source and are kept apart here.

Key:
[1] = dogs, cited from earlier work
[2] = Mass balance: percent of [14C]tigecycline dose excreted in human urine and feces
Description: The concentration of tigecycline-related components in serum, urine and feces was calculated based on the total radioactivity concentrations reported elsewhere. These concentrations were converted to ng-tigecycline equivalents using the specific activity of the dose (1.00 μCi/mg). Using this value, the concentrations of the specific components were then estimated based on the distribution of radioactivity in the radiochromatograms.
(§1) An open-label, inpatient, multiple-dose tigecycline, single-dose [^14C]tigecycline metabolic disposition and mass balance study was performed in six healthy male volunteers. The clinical protocol called for twelve subjects. Of these twelve, six received the radioactive dose (subjects 1, 4, 5, 6, 7, and 8 with subject 8 later dropping out of the study.) Eligible subjects were selected based on inclusion/exclusion criteria, medical history, physical examination and additional procedures outlined in the study protocol. Each subject received a 100 mg loading dose on the morning of Day 1, followed by a 50 mg maintenance dose every 12 hours for an additional 5 doses. On the morning of study Day 4, six subjects received a single 50 mg dose of [^14C]tigecycline (50 μCi). Each tigecycline dose was administered via a 30-minute intravenous infusion.
(§2) Serum samples were collected for metabolite profiling prior to tigecycline dosing and 1, 4, 8, 24 and 48 hours following the [^14C]-labeled dose. For metabolite profiling, urine samples were collected at 0-4, 4-8, 8-24 and 24-48 hours and fecal samples were collected up to 48 hours following the [^14C]-labeled dose. Serum and urine samples, and fecal homogenates were shipped on dry ice to the Biotransformation Division of Drug Safety and Metabolism, Wyeth Research, Collegeville, Pa. The details of the sample collection and sample storage are described in the mass balance portion of the study. The 24-48 hour urine and fecal samples for subject #6 were incomplete since the subject withdrew from the study. While samples from this subject were used for metabolite profiling, the samples were not included in the mass balance calculations.

[3] = Stability of [14C]tigecycline during extraction from control human fecal homogenates; assay type: in vitro ADME
Source text: Similar results were observed following the extraction of [^14C]tigecycline from control fecal homogenates. In these samples, [^14C]tigecycline accounted for 94% of the radioactivity prior to extraction and 68% following the extraction. There was a corresponding increase in the epimer of tigecycline, which represented 4% of the radioactivity prior to extraction and 23% following the extraction. […] Other minor products represented less than 1% of the radioactivity prior to the extraction and 4% following the extraction.
The stability of [^14C]tigecycline during the extraction process was determined in control human fecal homogenates spiked with [^14C]tigecycline at 5 μg/g of homogenate. […] Samples were extracted and analyzed by HPLC with radioactivity flow detection.

[4] = Stability of [14C]tigecycline in control human urine incubated at 37° C.; settings: for percent of radioactivity in spiked control urine: 37° C., 5 μg/mL
Description: The stability of [^14C]tigecycline was determined in control human urine spiked with [^14C]tigecycline at 5 μg/mL and incubated at 37° C. […] Aliquots (500 μL) were removed at 0, 1, 4, 8 and 24 hours and placed into fresh vials. These urine samples were processed and analyzed as described for serum in control example 2.

[5] = Stability of [14C]tigecycline in control human serum incubated at 37° C.; settings: for percent radioactivity in spiked control serum: 37° C., 3 μg/mL
Description: The stability of [^14C]tigecycline was examined in control serum incubated at 37° C. for up to 24 hours.
The stability of [^14C]tigecycline was determined in control human serum spiked with [^14C]tigecycline at 3 μg/mL and incubated at 37° C. […] Aliquots (500 μL) were removed at 0, 1, 4, 8 and 24 hours and placed into fresh vials. EDTA (40 μL of 0.5 M) was added and samples centrifuged at 14,000 rpm and room temperature for 10 min (Eppendorf centrifuge, Model 5415C). Supernatants were transferred to HPLC vials and analyzed by HPLC with radioactivity flow detection.

[6] = Stability of [14C]tigecycline during extraction from control human serum; assay type: in vitro ADME
Source text: In serum samples, [^14C]tigecycline accounted for 94% of the radioactivity prior to spiking and extracting the samples. After the extraction process, the amount of [^14C]tigecycline had decreased 24% to 70% of the radioactivity. There was a corresponding increase in other radioactive components, mainly the epimer of tigecycline, which increased from 4% prior to extraction to 22% following the extraction. Other minor products, which included M3a, increased from 2% prior to extraction to 8% following the extraction.
Additional serum samples were prepared as descried above and extracted. This was done to determine the effects, if any, of the extraction process on the stability of [^14C]tigecycline. These samples were analyzed by HPLC with radioactivity flow detection, as described in example 6.

[7] = rats, cited from earlier work
[8] = LC/MS characterization of tigecycline related compounds in human serum, urine and feces; assay type: in vivo; settings: in vivo
Source text: Three HPLC conditions were used during LC/MS analysis in this study. LC/MS Condition 1 was used for the majority of sample analyses for metabolite characterization and to isolate metabolite M3a from urine. LC/MS Condition 2 was used on selected samples to increase the retention time of glucuronide metabolites and for a co-chromatography experiment to confirm the identity of metabolites M8 and M9. LC/MS Condition 3 was used to analyze the polar metabolite M3a isolated from human urine.
The UV detector was set to monitor 340-360 nm. […] The flow rate was 0.2 mL/min. […] The linear mobile phase gradient is shown below.
Separations were accomplished on a Phenomenex Luna C18(2) column (250×2.0 mm, 5 μm) with a Uniguard C18 guard column (10×2 mm) (ThermoHypersil-Keystone). The flow rate was 0.2 mL/min. […] Mobile phase A was 0.02% trifluoroacetic acid in water (v/v) and mobile phase B was 0.02% trifluoroacetic acid in acetonitrile (v/v). The linear mobile phase gradient is shown below.
A Micromass Quattro Ultima triple quadrupole mass spectrometer (Waters Corp.) was operated in the positive ionization mode. LC/MS analysis with electrospray ionization (ESI) was conducted using a Z-spray interface. ESI-MS analysis of individual fractions from selected samples was conducted by direct infusion into a nanospray interface. Settings for the mass spectrometer are listed below.
Urine and feces samples were analyzed for tigecycline metabolites by LC/MS/MS analysis for precursors of product ions characteristic of tigecycline. Additionally, potential metabolites of tigecycline were searched for in the LC/MS data based upon results from previous studies in animals and humans.
Serum extracts were analyzed for tigecycline and selected metabolites by LC/MS/MS in the selected reaction monitoring (SRM) mode (LC/SRM) to reduce interference from endogenous components. […] The following tigecycline related components were monitored.

[9] = in vivo
Description: as §1, §2
Urine samples for metabolite profiling were extracted, as discussed below, using a method previously developed and used for rat and dog urine samples. Urine samples that had been collected at various intervals up to 48 hours following the dose of [^14C]tigecycline were thawed on ice prior to extraction. Aliquots (1 mL) of the individual urine samples were transferred to clean tubes and 0.2 M EDTA, for a final concentration of 40 mM EDTA, was added. […] Samples were mixed, centrifuged and the supernatants analyzed for metabolites by HPLC radiochromatography with selected samples also analyzed by LC/MS.
HPLC analyses were performed using a Waters 2695 Alliance Separation Module (Waters Corp., Milford, Mass.), a Waters Model 2487 dual wavelength UV absorbance detector, set to monitor 350 nm, and was in-line with a Gilson 215 liquid handler (Gilson, Middleton, Wis.) equipped to collect fractions at 20 second intervals. Fractions were collected into 96-well deep well Luma plates and analyzed using TopCount NXT. The autosampler temperature was set to 4° C. […]

[10] = Tigecycline metabolites identified in CD-1 mouse serum and urine and rabbit serum samples (LC/MS); assay type: in vivo; settings: in vivo, iv
Description: The column temperature was 25° C. The flow rate was 0.2 mL/min. […] Gradient 1 was used for metabolite identification (qualitative analysis).
LC/MS analysis was conducted on extracts of serum and from CD-1 mice and rabbits, and on urine from CD-1 mice. The mass spectral data for tigecycline and its metabolites are discussed below.

[11] = LC/MS detection of tigecycline metabolites in CD-1 mouse serum and urine after intravenous tigecycline; settings: mouse, in vivo, iv, 5 mg/kg
Description: Fifteen male CD-1 mice, with an average weight of 31.3 g at the time of dosing, were used. Animals were given food and water ad libitum. Mice in the 0.5 and 2 hour blood collection groups were housed in standard cages, while those in the 4 hour blood collection group were housed in metabolism cages for the collection of urine. Mice were dosed by the Bioresources Department at Wyeth Research, Collegeville, Pa.
For mice and rabbits, the intravenous dosing solutions was prepared by dissolving 50 mg of tigecycline in 5.0 mL of 0.9% sterile saline solution to make a working stock solution. The working stock solution was diluted with 0.9% sterile saline solution to 0.5 mg/mL for mice and 4 mg/mL for rabbits. The mouse dose (5 mg/kg, 10 mL/kg) was administered as a bolus injection via the tail vein. The rabbit dose (4 mg/kg, 1 mL/kg) was administered as a bolus injection via the marginal vein of the ear.
For mice (n=5/time point), blood (approximately 0.7 mL) was collected by cardiac puncture at 0.5, 2 and 4 hours following administration of tigecycline. For rabbits, blood (approximately 7 mL) was collected via the ear vein at 0.5, 2 and 6 hours following the tigecycline dose. Serum was separated following clot formation at room temperature and centrifugation for 15 minutes at 4° C. and 3000 rpm. The serum was transferred to a fresh tube and was stored at approximately −70° C. until analysis as described below under “Serum Sample Preparation for LC/MS Analysis. In addition, urine was collected from mice in the 4 hour blood collection group and was stored at approximately −70° C. until analysis, as described below under “Urine Sample Preparation for LC/MS Analysis.”
Mouse urine was thawed and an aliquot (1 mL) transferred to a fresh tube. The sample was centrifuged at 14,000 rpm and room temperature for 10 minutes using a Model 5415C Eppendorf centrifuge (Brinkmann Instruments, Westbury, N.Y.) to remove any particulates. The sample was then transferred to a fresh tube and was analyzed by LC/MS, as described below under “Liquid Chromatography/Mass Spectrometry Analysis.”.
Mouse and rabbit serum samples were pooled at each collection time and analyzed for tigecycline, its epimer, tigecycline glucuronide (M7 and its epimer M6), 9-aminominocycline (M3) and N-acetyl-9-aminominocycline (M9 and its epimer M8). Aliquots of serum (500 μL) were transferred to new tubes and deuterated tigecycline (30 ng/mL final concentration) was added as an internal standard (quantitative analysis only). EDTA (40 μL of 0.5 M EDTA) was added to each sample and the samples vortex mixed. Acetonitrile (500 μL) was added to each sample, samples were vortex mixed and denatured protein separated by centrifugation at 14,000 rpm and room temperature for 10 minutes using a Model 5415C Eppendorf centrifuge (Brinkmann Instruments). The supernatant was transferred to a fresh tube and the solvent evaporated under a stream of nitrogen using a Turbovap Model LV evaporator (Caliper Life Sciences, Hopkinton, Mass.).
The HPLC system used for mass spectrometric analysis was a Waters Alliance Model 2695 HPLC system (Waters Corp., Milford, Mass.). It was equipped with a built-in autosampler and a Model 996 diode array UV detector. The UV detector was set to monitor 210-400 nm. Separations for metabolite characterization were accomplished on a Phenomenex Luna C18(2) column (150×2.1 mm, 5 μm) (Phenomenex, Torrance, Calif.) equipped with a Keystone Uniguard C18 guard column (10×2.1 mm) (Thermo Electron Corp., Bellefonte, Pa.). The column temperature was 25° C. The flow rate was 0.2 mL/min. Mobile phase A was 10 mM ammonium acetate in water and mobile phase B was acetonitrile.

For `CN(C)c1cc(N[14C](=O)CNC(C)(C)C)c(O)c2c1CC1CC3C(N(C)C)C(O)=C(C(N)=O)C(=O)C3(O)C(O)=C1C2=O` (centres unmarked) [[^14C]tigecycline], the “single intravenous [14C]tigecycline dose recovered” value ([1]; including cage rinse) is listed as “approximately 89%”, the “dose recovered in feces” value [1] is listed as 47% and the “dose recovered in urine” value [1] is listed as 36%. For the same molecule, the “radioactivity excreted in feces (mean)” value ([2]; complete collection, n=3) was 58.6±4.4%, the “radioactivity excreted in urine (mean)” value ([2]; complete collection, n=3) was 33.2±1.9% and the “[14C]tigecycline dose recovered” value ([2]; first 48 hours, urine + feces) was “Approximately 50%”. The “Mean total recovery of radioactivity in human excreta” value ([2]; urine + feces, n=3) was 91.8%, the “percent of the radioactivity, control fecal homogenates” value ([3]; following the extraction) was 68% and the “percent of the radioactivity, control fecal homogenates” value ([3]; prior to extraction, 5 μg/g of homogenate) was 94%. The “percent of radioactivity in spiked control urine” value ([4]; 0 hours) was 92%, the “decrease in percent of radioactivity in spiked control urine” value ([4]; 0 to 24 hours at 37° C.) was 18% and the “percent of radioactivity in spiked control urine” value ([4]; 24 hours) was 74%. For the same molecule, the “percent radioactivity in spiked control serum” value ([5]; 0 hours) was 90%, the “percent radioactivity in spiked control serum” value ([5]; 24 hours) was 81% and the “decrease in percent radioactivity in spiked control serum” value ([5]; over 24 hours at 37° C.) was “approximately 9%”. For the same molecule, the “percent of the radioactivity, control serum” value ([6]; after the extraction process) was 70%, the “decrease in percent of the radioactivity, control serum” value ([6]; during the extraction process) was 24% and the “percent of the radioactivity, control serum” value ([6]; prior to spiking and extracting) was 94%. For the same molecule, the “single intravenous [14C]tigecycline dose recovered” value ([7]; including cage rinse) was “approximately 89%”, the “dose recovered in feces” value [7] was 53% and the “dose recovered in urine” value [7] was 34%.
For `CC(=O)Nc1cc(N(C)C)c2c(c1O)C(=O)C1=C(O)[C@]3(O)C(=O)C(C(N)=O)=C(O)[C@H](N(C)C)[C@@H]3C[C@@H]1C2` (single isomer, unassigned) [Metabolite M8, epimer of N-acetyl-9-aminominocycline], the “relative amount in human serum based on LC/MS data” value [8] was “minor metabolites” and the “relative amount in human urine based on LC/MS data” value [8] was “minor metabolites”.
In the case of Hydroxy Tigecycline [Metabolite M1], the “percent of the radioactivity in urine” value [9] is reported as “less than 1%” and the “relative amount in human urine based on LC/MS data” value [8] is reported as “trace amounts”.
With `CN(C)c1cc(N)c(O)c2c1C[C@H]1C[C@H]3[C@H](N(C)C)C(=O)C(C(N)=O)=C(O)[C@@]3(O)C(=O)C1=C2O` [Metabolite M3, 9-aminominocycline] the “Species and matrix in which identified” value [10] was “R-S, M-S, M-U”, the “observed in mouse urine by LC/MS” value [11] was “detected” and the “relative amount in human serum based on LC/MS data” value [8] was “minor metabolites”. The “relative amount in human urine based on LC/MS data” value [8] was “minor metabolites”.
